Results published in patent publication US6897316B2, “Substituted 2-phenyl-4-quinolone-3-carboxylic acid compounds and their use as antitumor agents” (China Medical University, priority 2003, dated 2005).
In brackets after ≈: the same amount, converted by molar mass.

Assays:
[1] = test system: glioblastoma (U87-MG) cell line; assay: Activity against HTCL replication, U87-MG; format: cell-based, human; settings: mean ED50
Description: Compounds were assayed for in vitro cytotoxicity in a panel of human tumor cell lines at the School of Pharmacy, University of North Carolina at Chapel Hill, according to procedures described previously [Lee, K. H., Lin, Y. M., Wu, T. S., Zhang, D. C., Yamagishi, T., Hayashi, T., Hall, I. H., Chang, J. J., Wu, R. Y., Yang, T. H. The cytotoxic principles of Prunella vulgaris, Psychotria serpens, and Hyptis capitata: Ursolic acid and related derivatives. Planta Med. 1988, 54, 308-11; Boyd, M. R. Status of the National Cancer Institute preclinical antitumor drug discovery screen: implications for selection of new agents for clinical trial. Devita, V. T., Jr. Hellman, S., Rosenberg, S. A., Eds, J. B. Cancer: Principles and Practice of Oncology Update, 1989, 3: pp1-12, Lippincoft: Philadephia; Monks, A., Scudiero, D., Skehan, P., Shoemaker, R., Paull, K., Vistica, D., Hose, C., Langley, J., Cronise, P., Vaigro-Wolff, A., Gray-Goodrich, M., Campbell, H., Mayo, J., Boyd, M. Feasibility of a high-flux anticancer drug screen using a diverse panel of cultured human tumor cell lines. J. Natl. Cancer Inst. 1991, 83, 757-66.] […]

OVCAR-4 (ovarian cancer) = assay: Growth inhibition in human cancer cell line panel, OVCAR-4; format: cell-based; settings: 48 hr, SRB
Description: Compound IX-8 was evaluated growth inhibition activities against a panel of 39 human cancer cell lines including Human breast cancer MDA-MB-231 and the following human cancer cell lines were generously distributed by the National Cancer Institute (Frederick, Md.): lung cancer, NCI-H23, NCI-H226, NCI-H522, NCI-H460, A-549, DMS273 and DMS114; colon cancer, HGC-2998, KM-12, HT-29, HCT-15, and HCT-116; ovarian cancer, OVCAR-3, OVCAR-4, OVCAR-5, OVCAR-8, and SKOV-3; breast cancer, MCF-7; renal cancer, RXF-631L and ACHN; melanoma, LOX-IMVI; brain tumor, U251, SF-295, SF-539, SF-268, SNB-75, and SNB-78, and prostate cancer, DU-145 and PC-3. […]
The details of measuring cell growth inhibition are described elsewhere [Monks, A., Scudiero, D., Skehan, P., Shoemaker, R., Paull, K., Vistica, D., Hose, C., Langley, J., Cronise, P., Vaigro-Wolff, A., Gray-Goodrich, M., Campbell, H., Mayo, J., Boyd, M. Feasibility of a high-flux anticancer drug screen using a diverse panel of cultured human tumor cell lines. […] Then, the cell growth was determined according to the Sulforhodamine B assay, described by Skehan et al [Skehan, P., Storeng, R., Scudiero, D., Monks, A., McMahon, J., Vistica, D., Warren, J. T., Bokesch, H., Kenney, S., Boyd, M. R. New calorimetric cytotoxicity assay for anticancer-drug screening. […]

- GI50 (OVCAR-4 (ovarian cancer)): 0.174 µM
SMILES: COc1ccc2[nH]c(-c3cccc(F)c3)c(C(=O)O)c(=O)c2c1 [IX-8, 3′-Fluoro-6-methoxy-2-phenyl-4-quinolone-3-carboxylic acid]
- ED50 U87-MG [1]: 1.50 µg/mL (≈ 4.79 µM)
